From ChEMBL document CHEMBL2417435, “The discovery of potent blockers of the canonical transient receptor channels, TRPC3 and TRPC6, based on an anilino-thiazole pharmacophore” (Bioorg Med Chem Lett, 2013) come the findings set out here.

In data set [1] the target is Sodium channel protein type 5 subunit alpha (Homo sapiens, UniProt Q14524). The data set is described as follows: Inhibition of NaV1.5 channel (unknown origin) by patch express-based electrophysiology assay.
Data set [2] deals with Voltage-gated inwardly rectifying potassium channel KCNH2 (Homo sapiens, UniProt Q12809). The data set is described as follows: Inhibition of human ERG channel by patch express-based electrophysiology assay.
Data set [3] deals with Transient receptor potential cation channel subfamily V member 4 (Homo sapiens, UniProt Q9HBA0). Description: Inhibition of TRPV4 (unknown origin) by FLIPR assay.
The target of data set [4] is Voltage-dependent L-type calcium channel subunit alpha-1C (Homo sapiens, UniProt Q13936). The data set is described as follows: Inhibition of CaV1.2 channel (unknown origin) by patch express-based electrophysiology assay.
The target in data set [5] is Transient receptor potential cation channel subfamily A member 1 (Homo sapiens, UniProt O75762). Description: Inhibition of TRPA1 (unknown origin) by FLIPR assay.
Data set [6] has as its target Transient receptor potential cation channel subfamily V member 1 (Homo sapiens, UniProt Q8NER1). Description: Inhibition of TRPV1 (unknown origin) by FLIPR assay.
The nature of data set [7]: Oral bioavailability in rat at 1.04 mg/kg. The conditions noted are these: in vivo. In kind it is ADME, organism-based.
The subject of data set [8] is Rattus norvegicus. Description: Dose normalized AUC in rat at 1.04 mg/kg, iv. In kind it is ADME, organism-based. The following applies: in vivo. Set-up: dose 1.04 mg/kg, route intravenous.
Data set [9] can be described thus: Clearance in rat at 1.04 mg/kg, iv. In kind it is ADME, organism-based. Set-up: dose 1.04 mg/kg, route intravenous. The conditions noted are these: in vivo.
The nature of data set [10]: Mean residence time in rat at 1.04 mg/kg, iv. Set-up: dose 1.04 mg/kg, route intravenous. Format: ADME, organism-based. The following applies: in vivo.
Data set [11] in a line: Cmax in rat at 1.04 mg/kg, iv. Format: ADME, organism-based. The following applies: in vivo. Details: dose 1.04 mg/kg, route intravenous.
Data set [12] deals with T1, Short transient receptor potential channel 6 (Homo sapiens, UniProt Q9Y210).
T1 sequence (Q9Y210 whole entry): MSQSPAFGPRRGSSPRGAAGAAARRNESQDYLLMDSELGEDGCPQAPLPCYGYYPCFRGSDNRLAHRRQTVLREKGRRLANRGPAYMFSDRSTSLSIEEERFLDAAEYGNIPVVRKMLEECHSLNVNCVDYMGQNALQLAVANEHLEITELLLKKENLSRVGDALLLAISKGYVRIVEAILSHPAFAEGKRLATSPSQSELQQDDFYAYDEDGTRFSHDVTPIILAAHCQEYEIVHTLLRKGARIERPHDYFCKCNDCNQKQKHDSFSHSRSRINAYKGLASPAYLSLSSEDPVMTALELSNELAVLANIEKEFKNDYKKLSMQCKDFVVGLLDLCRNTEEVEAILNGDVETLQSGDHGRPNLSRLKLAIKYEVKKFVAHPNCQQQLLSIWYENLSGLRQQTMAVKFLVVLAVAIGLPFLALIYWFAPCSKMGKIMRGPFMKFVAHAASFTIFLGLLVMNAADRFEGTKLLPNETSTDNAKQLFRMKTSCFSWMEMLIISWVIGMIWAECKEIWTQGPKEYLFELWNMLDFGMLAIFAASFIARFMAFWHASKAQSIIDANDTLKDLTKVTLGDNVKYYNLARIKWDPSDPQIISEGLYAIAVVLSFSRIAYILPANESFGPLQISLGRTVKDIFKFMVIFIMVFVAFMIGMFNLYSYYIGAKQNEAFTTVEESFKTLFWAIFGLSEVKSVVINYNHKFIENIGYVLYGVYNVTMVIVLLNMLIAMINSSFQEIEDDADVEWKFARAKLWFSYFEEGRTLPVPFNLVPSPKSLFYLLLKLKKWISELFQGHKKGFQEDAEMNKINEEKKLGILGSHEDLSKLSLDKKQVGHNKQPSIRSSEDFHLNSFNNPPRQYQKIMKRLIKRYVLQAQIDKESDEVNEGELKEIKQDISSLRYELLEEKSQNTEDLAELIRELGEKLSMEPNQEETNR
Description: Inhibition of human recombinant TRPC6 expressed in HEK293-MSRII cells assessed as carbachol-stimulated Ca2+/Na+ influx after 10 mins by FLIPR assay. Format: cell-based.

In data set [13] the target is T2, Short transient receptor potential channel 3 (Homo sapiens, UniProt Q13507).
T2 sequence (Q13507 whole entry): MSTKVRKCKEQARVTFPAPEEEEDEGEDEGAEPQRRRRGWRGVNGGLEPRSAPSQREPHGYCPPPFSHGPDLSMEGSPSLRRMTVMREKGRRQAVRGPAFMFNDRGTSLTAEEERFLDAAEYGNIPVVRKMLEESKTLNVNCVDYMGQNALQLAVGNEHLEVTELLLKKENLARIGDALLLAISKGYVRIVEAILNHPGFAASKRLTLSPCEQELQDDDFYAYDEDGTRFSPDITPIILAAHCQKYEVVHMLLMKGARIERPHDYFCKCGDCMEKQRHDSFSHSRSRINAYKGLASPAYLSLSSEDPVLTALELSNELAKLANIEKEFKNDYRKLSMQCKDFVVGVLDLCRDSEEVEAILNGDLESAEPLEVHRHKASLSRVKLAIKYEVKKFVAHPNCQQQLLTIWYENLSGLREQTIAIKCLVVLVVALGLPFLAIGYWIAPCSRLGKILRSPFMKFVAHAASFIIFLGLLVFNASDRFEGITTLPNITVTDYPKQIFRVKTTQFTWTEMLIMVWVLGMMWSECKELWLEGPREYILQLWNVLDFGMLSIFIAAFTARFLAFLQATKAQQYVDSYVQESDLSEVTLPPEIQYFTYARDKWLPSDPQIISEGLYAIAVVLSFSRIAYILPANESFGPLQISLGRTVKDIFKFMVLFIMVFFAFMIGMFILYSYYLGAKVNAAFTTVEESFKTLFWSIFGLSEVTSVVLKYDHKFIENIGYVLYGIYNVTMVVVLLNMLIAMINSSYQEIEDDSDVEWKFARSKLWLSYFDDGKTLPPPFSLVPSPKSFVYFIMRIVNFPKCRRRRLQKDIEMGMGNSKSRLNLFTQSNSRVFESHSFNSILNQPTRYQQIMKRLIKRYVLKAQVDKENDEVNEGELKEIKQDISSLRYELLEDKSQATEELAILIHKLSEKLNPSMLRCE
Description: Inhibition of human recombinant TRPC3 expressed in HEK293-MSRII cells assessed as carbachol-stimulated Ca2+/Na+ influx after 10 mins by FLIPR assay. Format: cell-based.

A value given as a limit tells only on which side of the number the result lay.

Transient receptor potential cation channel subfamily V member 4, sequence (Q9HBA0 whole entry): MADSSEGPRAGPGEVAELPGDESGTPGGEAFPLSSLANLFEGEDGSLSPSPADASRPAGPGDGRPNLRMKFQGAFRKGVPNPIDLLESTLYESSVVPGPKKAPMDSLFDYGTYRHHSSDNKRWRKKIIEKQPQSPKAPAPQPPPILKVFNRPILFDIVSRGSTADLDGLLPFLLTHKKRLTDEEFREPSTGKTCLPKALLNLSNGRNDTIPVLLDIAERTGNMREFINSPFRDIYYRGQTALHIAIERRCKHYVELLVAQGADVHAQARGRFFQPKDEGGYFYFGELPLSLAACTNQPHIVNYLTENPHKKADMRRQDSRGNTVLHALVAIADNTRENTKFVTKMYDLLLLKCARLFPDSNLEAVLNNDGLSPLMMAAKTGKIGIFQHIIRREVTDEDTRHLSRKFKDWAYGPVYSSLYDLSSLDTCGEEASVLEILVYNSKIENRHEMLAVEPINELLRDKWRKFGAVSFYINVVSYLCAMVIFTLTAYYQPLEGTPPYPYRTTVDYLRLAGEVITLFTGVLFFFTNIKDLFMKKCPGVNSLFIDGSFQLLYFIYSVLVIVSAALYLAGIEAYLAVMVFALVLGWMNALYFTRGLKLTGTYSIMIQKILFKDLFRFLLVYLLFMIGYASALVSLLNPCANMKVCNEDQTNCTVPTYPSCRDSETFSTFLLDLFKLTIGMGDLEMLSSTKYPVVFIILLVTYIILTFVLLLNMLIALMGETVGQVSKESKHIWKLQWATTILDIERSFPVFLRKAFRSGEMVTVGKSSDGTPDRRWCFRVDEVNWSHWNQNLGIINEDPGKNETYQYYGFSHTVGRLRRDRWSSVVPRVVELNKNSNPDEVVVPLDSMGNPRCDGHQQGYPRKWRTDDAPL
Transient receptor potential cation channel subfamily A member 1, sequence (O75762 whole entry): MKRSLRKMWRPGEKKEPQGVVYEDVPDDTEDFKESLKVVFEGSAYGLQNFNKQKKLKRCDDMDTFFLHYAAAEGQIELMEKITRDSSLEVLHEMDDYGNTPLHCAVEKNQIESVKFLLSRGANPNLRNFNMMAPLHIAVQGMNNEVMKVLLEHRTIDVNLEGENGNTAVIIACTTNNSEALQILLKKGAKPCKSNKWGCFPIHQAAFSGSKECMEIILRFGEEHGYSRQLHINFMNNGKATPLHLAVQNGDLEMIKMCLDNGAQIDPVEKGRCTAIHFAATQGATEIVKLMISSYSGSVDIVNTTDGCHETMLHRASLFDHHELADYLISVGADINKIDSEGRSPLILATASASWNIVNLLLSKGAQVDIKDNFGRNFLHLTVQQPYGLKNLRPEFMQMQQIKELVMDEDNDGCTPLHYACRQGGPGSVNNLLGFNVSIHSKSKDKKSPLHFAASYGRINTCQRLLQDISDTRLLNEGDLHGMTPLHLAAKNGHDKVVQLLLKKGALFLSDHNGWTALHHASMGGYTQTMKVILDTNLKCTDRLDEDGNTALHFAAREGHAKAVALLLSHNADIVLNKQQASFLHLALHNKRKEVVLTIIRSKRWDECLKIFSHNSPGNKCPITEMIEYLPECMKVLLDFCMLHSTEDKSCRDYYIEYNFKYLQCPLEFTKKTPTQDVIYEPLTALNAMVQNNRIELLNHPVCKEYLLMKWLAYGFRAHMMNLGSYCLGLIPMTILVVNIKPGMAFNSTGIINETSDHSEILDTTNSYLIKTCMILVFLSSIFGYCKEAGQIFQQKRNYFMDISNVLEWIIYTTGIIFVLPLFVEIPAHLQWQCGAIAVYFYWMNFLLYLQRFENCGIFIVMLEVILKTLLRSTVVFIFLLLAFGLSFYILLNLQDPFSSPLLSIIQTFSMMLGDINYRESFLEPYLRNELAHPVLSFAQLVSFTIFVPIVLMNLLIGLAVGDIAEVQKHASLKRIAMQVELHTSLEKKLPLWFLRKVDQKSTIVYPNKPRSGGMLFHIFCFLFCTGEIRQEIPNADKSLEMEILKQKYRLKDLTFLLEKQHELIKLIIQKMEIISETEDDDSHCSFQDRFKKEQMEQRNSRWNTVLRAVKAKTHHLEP
Voltage-dependent L-type calcium channel subunit alpha-1C, sequence (Q13936 whole entry): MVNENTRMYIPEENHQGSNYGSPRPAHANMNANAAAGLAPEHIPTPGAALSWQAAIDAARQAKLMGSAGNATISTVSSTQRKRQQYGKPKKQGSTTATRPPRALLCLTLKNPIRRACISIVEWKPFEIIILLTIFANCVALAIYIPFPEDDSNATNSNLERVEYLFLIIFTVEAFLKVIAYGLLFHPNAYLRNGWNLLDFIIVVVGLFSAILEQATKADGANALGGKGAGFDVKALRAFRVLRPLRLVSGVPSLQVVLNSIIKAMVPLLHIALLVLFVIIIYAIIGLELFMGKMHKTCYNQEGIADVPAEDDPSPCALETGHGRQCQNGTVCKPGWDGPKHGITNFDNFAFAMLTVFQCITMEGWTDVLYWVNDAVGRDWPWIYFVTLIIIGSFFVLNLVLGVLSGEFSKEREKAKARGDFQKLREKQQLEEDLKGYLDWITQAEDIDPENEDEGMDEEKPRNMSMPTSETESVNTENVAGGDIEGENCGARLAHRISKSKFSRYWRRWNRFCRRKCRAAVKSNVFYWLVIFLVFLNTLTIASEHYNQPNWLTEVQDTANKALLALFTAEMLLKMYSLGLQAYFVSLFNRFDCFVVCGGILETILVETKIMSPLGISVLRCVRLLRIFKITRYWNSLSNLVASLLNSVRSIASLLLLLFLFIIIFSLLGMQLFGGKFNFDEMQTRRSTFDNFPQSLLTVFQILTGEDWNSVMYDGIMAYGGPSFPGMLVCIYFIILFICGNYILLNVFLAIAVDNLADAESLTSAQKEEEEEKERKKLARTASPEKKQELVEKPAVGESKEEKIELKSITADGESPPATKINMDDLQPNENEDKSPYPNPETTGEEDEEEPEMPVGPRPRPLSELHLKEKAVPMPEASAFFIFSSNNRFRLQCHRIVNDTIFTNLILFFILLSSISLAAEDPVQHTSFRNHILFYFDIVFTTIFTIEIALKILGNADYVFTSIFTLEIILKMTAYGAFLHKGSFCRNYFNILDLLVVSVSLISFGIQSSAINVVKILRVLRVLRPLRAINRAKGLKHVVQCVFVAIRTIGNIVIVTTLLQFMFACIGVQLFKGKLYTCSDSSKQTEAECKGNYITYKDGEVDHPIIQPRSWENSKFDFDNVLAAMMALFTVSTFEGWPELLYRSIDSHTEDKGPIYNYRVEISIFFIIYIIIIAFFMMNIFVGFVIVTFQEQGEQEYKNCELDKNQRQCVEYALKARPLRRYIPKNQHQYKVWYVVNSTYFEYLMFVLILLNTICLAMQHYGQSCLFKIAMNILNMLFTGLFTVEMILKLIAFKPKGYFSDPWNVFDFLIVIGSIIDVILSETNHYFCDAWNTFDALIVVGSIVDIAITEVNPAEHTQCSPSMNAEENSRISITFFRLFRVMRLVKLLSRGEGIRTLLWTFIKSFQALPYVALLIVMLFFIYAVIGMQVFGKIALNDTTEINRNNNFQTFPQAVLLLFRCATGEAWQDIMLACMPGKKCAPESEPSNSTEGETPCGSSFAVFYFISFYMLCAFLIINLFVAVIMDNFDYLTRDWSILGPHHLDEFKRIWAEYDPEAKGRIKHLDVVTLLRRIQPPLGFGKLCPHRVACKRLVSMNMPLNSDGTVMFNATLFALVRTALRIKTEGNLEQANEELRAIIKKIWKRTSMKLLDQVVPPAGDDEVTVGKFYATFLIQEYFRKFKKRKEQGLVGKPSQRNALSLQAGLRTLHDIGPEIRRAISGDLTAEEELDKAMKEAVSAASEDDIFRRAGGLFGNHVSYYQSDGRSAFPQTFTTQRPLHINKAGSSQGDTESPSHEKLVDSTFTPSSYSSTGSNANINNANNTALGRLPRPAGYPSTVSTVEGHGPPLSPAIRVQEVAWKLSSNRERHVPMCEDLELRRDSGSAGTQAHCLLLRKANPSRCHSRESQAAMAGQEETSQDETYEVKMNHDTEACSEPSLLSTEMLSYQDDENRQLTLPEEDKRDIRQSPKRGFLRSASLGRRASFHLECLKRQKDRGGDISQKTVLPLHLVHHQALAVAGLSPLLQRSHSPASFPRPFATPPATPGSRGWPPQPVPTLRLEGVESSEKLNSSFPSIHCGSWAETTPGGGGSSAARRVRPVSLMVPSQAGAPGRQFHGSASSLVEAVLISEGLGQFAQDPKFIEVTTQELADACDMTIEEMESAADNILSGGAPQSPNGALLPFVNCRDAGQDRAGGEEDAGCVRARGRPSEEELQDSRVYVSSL
Transient receptor potential cation channel subfamily V member 1, sequence (Q8NER1 whole entry): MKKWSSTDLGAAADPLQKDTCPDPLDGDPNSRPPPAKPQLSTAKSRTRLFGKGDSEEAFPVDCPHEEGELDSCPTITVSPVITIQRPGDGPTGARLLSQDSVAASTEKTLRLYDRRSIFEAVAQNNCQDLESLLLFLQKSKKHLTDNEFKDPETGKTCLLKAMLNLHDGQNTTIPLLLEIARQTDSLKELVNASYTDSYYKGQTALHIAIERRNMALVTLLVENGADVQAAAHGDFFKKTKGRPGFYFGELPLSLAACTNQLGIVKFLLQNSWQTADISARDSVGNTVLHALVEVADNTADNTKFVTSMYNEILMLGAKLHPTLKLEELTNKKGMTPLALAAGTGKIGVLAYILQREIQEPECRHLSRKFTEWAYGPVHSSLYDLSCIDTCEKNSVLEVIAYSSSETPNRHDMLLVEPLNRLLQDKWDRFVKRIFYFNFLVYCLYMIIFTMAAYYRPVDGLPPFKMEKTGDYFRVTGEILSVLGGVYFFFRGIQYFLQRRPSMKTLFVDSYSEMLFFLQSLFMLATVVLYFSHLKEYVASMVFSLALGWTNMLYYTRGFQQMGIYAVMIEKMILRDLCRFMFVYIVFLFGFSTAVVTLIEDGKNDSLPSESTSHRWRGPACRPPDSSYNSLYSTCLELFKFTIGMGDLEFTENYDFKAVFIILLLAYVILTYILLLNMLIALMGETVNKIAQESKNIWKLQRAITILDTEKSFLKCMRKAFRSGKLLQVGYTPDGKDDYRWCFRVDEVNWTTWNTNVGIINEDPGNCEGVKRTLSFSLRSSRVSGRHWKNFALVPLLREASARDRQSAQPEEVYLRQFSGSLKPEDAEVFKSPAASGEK

With `Cc1ccc(Nc2nc(C(=O)N3CCCC(C)C3C)cs2)cc1` (stereo not drawn), the half-inhibitory concentration (IC50) (usually the concentration needed to halve the response being measured) in data set [1] is 50 µM; in data set [2], over 50 µM; in data set [3], 6.3 µM; in data set [4], 10 µM; in [5] it was 8 µM; in [6], 1.26 µM. Further, the IC50 was 0.08 µM in [12] and 0.25 µM in [13]. The bioavailability (as a rule, dose-corrected exposure relative to a reference, in per cent) in [7] is under 1%. The AUC/dose in [8] worked out at 0.2 kg·L·h. Also, in [9], the clearance (commonly a measure of how efficiently the substance is removed, as volume per time) worked out at 75 mL/min/kg. For the same compound, in data set [10], the mean residence time (MRT) (usually the average time that molecules of a dose stay in the body) was 2.8 h. For the same compound, the Cmax (usually the highest concentration seen after dosing) in data set [11] was 310 ng/mL.
